# ChEMBL document CHEMBL5528088, “Design and Synthesis of Cyclolipopeptide Mimics of Dysoxylactam A and Evaluation of the Reversing Potencies against P-Glycoprotein-Mediated Multidrug Resistance” (J Med Chem, 2024)
# The source made the active and inactive calls. The calls are words filed in the database; no cut-off is given here.
# Columns and labels:
# KBv200 [1] = experiment: Inhibition of Rho-123 uptake in human KBv200 cells at 10 uM incubated for 10 mins by flow cytometry; assay type: functional, cell-based
# KBv200 [2] = experiment: Inhibition of ADR uptake in human KBv200 cells at 10 uM incubated for 10 mins by flow cytometry; assay type: functional, cell-based
# KBv200 [3] = experiment: Reversal fold, ratio of VNR IC50 to VNR IC50 in presence of test compound for human KBv200 cells incubated for 72 hrs by SRB assay; assay type: functional
# KBv200 [4] = experiment: Inhibition of calcein AM uptake in human KBv200 cells at 10 uM incubated for 10 mins by flow cytometry; assay type: functional, cell-based
# KBv200 [5] = experiment: Inhibition of cell proliferation in human KBv200 cells assessed as inhibition of VNR at 10 uM incubated for 72 hrs in presence of VNR by SRB assay relative to control; assay type: functional
# KBv200 [6] = experiment: Cytotoxicity against human KBv200 cells at 10 uM incubated for 72 hrs by SRB assay relative to control; assay type: functional
# KBv200 [7] = experiment: Inhibition of ADR uptake in human KBv200 cells at 10 uM incubated for 10 mins by fluorescence microscopy; assay type: functional, cell-based
# NCI/ADR-RES [8] = experiment: Reversal fold, ratio of ADR IC50 to ADR IC50 in presence of test compound for reversal effect on P-gp-mediated multidrug resistance in human NCI/ADR-RES cells incubated for 72 hrs by SRB assay; assay type: functional
# [9] = Aqueous solubility of compound at neutral pH; assay type: physicochemical
# [10] = Inhibition of ADR efflux in human KBv200 cells assessed as ADR accumulation at 1 uM incubated for 3 hrs by flow cytometry (reference value: 25.7 %); assay type: functional; set-up: scale not given: the % may be the effect or the level left
# NCI/ADR-RES [11] = experiment: Reversal fold, ratio of PTX IC50 to PTX IC50 in presence of test compound for reversal effect on P-gp-mediated multidrug resistance in human NCI/ADR-RES cells incubated for 72 hrs by SRB assay; assay type: functional
# [12] = Half life in Sprague-Dawley rat at 30 mg/kg, po measured for 24 hrs by LC-MS analysis; assay type: ADME, organism-based; settings: in vivo
# KBv200 [13] = experiment: Antitumor activity against human KBv200 cells xenografted in Balb/cA nude mouse assessed as decrease in tumor size at 75 mg/kg, ip administered upto day 8 and measured for 14 days; assay type: functional, organism-based; settings: time 14.0 day
# [14] = Tmax in Sprague-Dawley rat at 30 mg/kg, po measured for 24 hrs by LC-MS analysis; assay type: ADME, organism-based; settings: in vivo
# KBv200 [15] = experiment: Reversal fold, ratio of VNR IC50 to VNR IC50 in presence of test compound for reversal effect on P-gp-mediated multidrug resistance in human KBv200 cells incubated for 72 hrs by SRB assay; assay type: functional
# KBv200 [16] = experiment: Reversal fold, ratio of PTX IC50 to PTX IC50 in presence of test compound for reversal effect on P-gp-mediated multidrug resistance in human KBv200 cells incubated for 72 hrs by SRB assay; assay type: functional
# [17] = AUC (infinity) in Sprague-Dawley rat at 1 mg/kg, iv measured for 24 hrs by LC-MS analysis; assay type: ADME, organism-based; settings: in vivo
# [18] = Volume of distribution at steady state in Sprague-Dawley rat at 1 mg/kg, iv measured for 24 hrs by LC-MS analysis; assay type: ADME, organism-based; settings: in vivo, read-out: Vdss
# [19] = molecular target: Multidrug resistance-associated protein 1 (Homo sapiens, UniProt P33527); experiment: Inhibition of MRP1 (unknown origin) expressed in HEK293 cells assessed as increase in mitoxantrone accumulation by flow cytometry; assay type: cell-based
# Multidrug resistance-associated protein 1, sequence (P33527 whole entry): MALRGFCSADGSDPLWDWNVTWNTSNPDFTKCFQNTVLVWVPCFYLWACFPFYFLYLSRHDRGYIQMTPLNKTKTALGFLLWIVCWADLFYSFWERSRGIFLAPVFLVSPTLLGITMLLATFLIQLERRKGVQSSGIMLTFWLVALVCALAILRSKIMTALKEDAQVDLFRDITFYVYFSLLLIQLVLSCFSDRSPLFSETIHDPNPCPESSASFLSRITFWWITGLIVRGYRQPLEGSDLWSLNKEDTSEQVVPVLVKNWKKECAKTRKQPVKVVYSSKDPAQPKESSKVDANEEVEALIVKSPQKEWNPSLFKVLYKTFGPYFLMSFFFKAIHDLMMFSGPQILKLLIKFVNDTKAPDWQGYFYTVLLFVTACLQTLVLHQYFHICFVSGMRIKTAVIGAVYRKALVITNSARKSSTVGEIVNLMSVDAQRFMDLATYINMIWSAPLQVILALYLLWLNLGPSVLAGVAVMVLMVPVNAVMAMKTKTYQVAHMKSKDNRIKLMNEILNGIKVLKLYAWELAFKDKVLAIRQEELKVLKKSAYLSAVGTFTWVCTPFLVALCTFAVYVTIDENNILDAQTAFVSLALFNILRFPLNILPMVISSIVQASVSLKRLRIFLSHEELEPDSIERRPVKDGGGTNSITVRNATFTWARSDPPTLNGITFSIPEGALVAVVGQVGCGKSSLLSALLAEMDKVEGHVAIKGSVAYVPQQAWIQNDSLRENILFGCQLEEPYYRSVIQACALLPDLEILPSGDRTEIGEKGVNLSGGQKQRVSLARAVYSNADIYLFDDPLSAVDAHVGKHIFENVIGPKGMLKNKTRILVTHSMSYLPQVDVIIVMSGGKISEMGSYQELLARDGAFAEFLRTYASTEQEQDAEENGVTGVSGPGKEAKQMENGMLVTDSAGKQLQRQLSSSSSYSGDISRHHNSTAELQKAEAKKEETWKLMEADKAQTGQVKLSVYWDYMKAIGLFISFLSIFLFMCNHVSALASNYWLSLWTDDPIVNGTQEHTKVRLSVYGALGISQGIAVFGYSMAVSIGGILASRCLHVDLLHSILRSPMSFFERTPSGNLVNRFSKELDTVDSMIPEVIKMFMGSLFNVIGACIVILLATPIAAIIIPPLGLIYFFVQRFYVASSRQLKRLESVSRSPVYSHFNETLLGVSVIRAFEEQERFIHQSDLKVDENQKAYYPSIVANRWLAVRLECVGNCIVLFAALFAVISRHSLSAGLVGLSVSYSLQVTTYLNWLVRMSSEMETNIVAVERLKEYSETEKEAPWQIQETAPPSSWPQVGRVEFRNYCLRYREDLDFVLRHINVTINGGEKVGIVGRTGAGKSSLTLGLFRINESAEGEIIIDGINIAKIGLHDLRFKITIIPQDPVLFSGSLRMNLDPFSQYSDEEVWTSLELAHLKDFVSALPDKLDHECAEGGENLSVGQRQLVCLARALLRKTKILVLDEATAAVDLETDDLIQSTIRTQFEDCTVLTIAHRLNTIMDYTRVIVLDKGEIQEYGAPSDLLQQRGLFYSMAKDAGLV
# KBv200 [20] = experiment: Antitumor activity against human KBv200 cells xenografted in Balb/cA nude mouse assessed as decrease in tumor weight at 75 mg/kg, ip administered upto day 8 and measured for 14 days in presence of VNR; assay type: functional, organism-based; settings: time 14.0 day
# KBv200 [21] = experiment: Effect on P-gp level in human KBv200 cells at 1 to 10 uM incubated for 24 hrs by Western blot analysis; assay type: functional, cell-based; settings: dose 1-10 µM
# [22] = Inhibition of ADR uptake in human KBv200 cells assessed as ADR accumulation at 1 uM incubated for 10 mins by flow cytometry (reference value: 6.2 %); assay type: functional; set-up: scale not given: the % may be the effect or the level left
# [23] = Lipophilicity, logD of compound at pH 7.4; assay type: physicochemical; settings: buffer
# [24] = AUClast in Sprague-Dawley rat at 1 mg/kg, iv measured for 24 hrs by LC-MS analysis; assay type: ADME, organism-based; settings: in vivo
# [25] = Oral bioavailability in Sprague-Dawley rat at 30 mg/kg measured for 24 hrs by LC-MS analysis; assay type: ADME, organism-based; settings: in vivo
# [26] = AUC (infinity) in Sprague-Dawley rat at 30 mg/kg, po measured for 24 hrs by LC-MS analysis; assay type: ADME, organism-based; settings: in vivo
# [27] = molecular target: T1, Broad substrate specificity ATP-binding cassette transporter ABCG2 (Homo sapiens, UniProt Q9UNQ0); experiment: Inhibition of BCRP (unknown origin) expressed in HEK293 cells assessed as increase in mitoxantrone accumulation by flow cytometry; assay type: cell-based
# T1 sequence (Q9UNQ0 whole entry): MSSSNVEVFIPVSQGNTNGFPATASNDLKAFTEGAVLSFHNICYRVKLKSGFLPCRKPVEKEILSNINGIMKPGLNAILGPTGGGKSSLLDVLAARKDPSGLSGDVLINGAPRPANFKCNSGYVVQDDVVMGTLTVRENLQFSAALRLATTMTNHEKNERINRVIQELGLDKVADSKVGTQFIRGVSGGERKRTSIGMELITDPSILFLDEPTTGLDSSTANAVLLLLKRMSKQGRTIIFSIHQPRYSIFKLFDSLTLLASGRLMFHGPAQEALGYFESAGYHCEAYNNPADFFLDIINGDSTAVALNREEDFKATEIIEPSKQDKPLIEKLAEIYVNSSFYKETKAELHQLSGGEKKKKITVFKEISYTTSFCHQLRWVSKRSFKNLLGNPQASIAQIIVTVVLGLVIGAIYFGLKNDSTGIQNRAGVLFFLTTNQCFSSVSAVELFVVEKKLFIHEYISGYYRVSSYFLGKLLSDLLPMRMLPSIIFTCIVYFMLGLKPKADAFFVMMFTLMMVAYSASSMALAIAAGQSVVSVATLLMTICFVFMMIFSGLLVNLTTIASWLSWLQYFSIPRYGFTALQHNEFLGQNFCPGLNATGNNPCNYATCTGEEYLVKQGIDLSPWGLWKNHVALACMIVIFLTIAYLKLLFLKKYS
# [28] = Cmax in Sprague-Dawley rat at 30 mg/kg, po measured for 24 hrs by LC-MS analysis; assay type: ADME, organism-based; settings: in vivo
# [29] = Toxicity in Balb/cA nude mouse xenografted with human KBv200 cells assessed as change in body weight at 75 mg/kg, ip administered upto day 8 and measured for 14 days; assay type: organism-based; settings: in vivo, 336 h, time 14 day
# [30] = Inhibition of ADR uptake in human KBv200 cells assessed as ADR accumulation at 10 uM incubated for 10 mins by flow cytometry (reference value: 6.2 %); assay type: functional; set-up: scale not given: the % may be the effect or the level left
# NCI/ADR-RES [31] = experiment: Reversal fold, ratio of VNR IC50 to VNR IC50 in presence of test compound for reversal effect on P-gp-mediated multidrug resistance in human NCI/ADR-RES cells incubated for 72 hrs by SRB assay; assay type: functional
# KBv200 [32] = experiment: Effect on P-gp level in human KBv200 cells incubated for 24 hrs by qRT-PCR analysis; assay type: functional, cell-based
# [33] = MRT (infinity) in Sprague-Dawley rat at 1 mg/kg, iv measured for 24 hrs by LC-MS analysis; assay type: ADME, organism-based; settings: in vivo
# [34] = AUClast in Sprague-Dawley rat at 30 mg/kg, po measured for 24 hrs by LC-MS analysis; assay type: ADME, organism-based; settings: in vivo
# [35] = Toxicity in Balb/cA nude mouse xenografted with human KBv200 cells assessed as animal mortality at 75 mg/kg, ip administered upto day 8 and measured for 14 days; assay type: organism-based; settings: in vivo, 336 h, time 14 day
# KBv200 [36] = experiment: Inhibition of ADR efflux in human KBv200 cells incubated for 3 hrs by fluorescence microscopy; assay type: functional, cell-based
# KBv200 [37] = experiment: Reversal fold, ratio of ADR IC50 to ADR IC50 in presence of test compound for reversal effect on P-gp-mediated multidrug resistance in human KBv200 cells incubated for 72 hrs by SRB assay; assay type: functional
# [38] = Half life in Sprague-Dawley rat at 1 mg/kg, iv measured for 24 hrs by LC-MS analysis; assay type: ADME, organism-based; settings: in vivo
# [39] = MRT (infinity) in Sprague-Dawley rat at 30 mg/kg, po measured for 24 hrs by LC-MS analysis; assay type: ADME, organism-based; settings: in vivo
# NCI/ADR-RES [40] = experiment: Effect on P-gp level in human NCI/ADR-RES cells at 1 to 10 uM incubated for 24 hrs by Western blot analysis; assay type: functional, cell-based; settings: dose 1-10 µM
# [41] = Inhibition of ADR efflux in human KBv200 cells assessed as ADR accumulation at 10 uM incubated for 3 hrs by flow cytometry (reference value: 25.7 %); assay type: functional; set-up: scale not given: the % may be the effect or the level left
# KBv200 [42] = experiment: Antitumor activity against human KBv200 cells xenografted in Balb/cA nude mouse assessed as decrease in tumor volume at 75 mg/kg, ip administered upto day 8 and measured for 14 days in presence of VNR; assay type: functional, organism-based; settings: time 14.0 day
structure (smiles),measurement,setting,value
COc1ccc(CCN(C)CCCC(C#N)(c2ccc(OC)c(OC)c2)C(C)C)cc1OC (stereo not drawn) [VERAPAMIL],inhibition,KBv200 [1],Active
same,inhibition,KBv200 [2],inactive
same,Ratio IC50,KBv200 [3],59.5
same,inhibition,KBv200 [4],inactive
same,inhibition at 10 µM,KBv200 [5],97.5%
same,Activity,KBv200 [6],5%
CC(C)[C@@H]1NC(=O)CCCCCCCCCCCCC(=O)N[C@@H](Cc2ccccc2)COC1=O,Ratio IC50,KBv200 [3],99.2
same,inhibition at 10 µM,KBv200 [5],97.3%
same,Activity,KBv200 [6],4.4%
CC(C)[C@@H]1NC(=O)CCCCCCCCCCCC(=O)N[C@@H](Cc2ccccc2)COC1=O,inhibition,KBv200 [7],inactive
same,Ratio IC50,NCI/ADR-RES [8],33.9
same,solubility,[9],0.64 µg/mL
same,Activity,[10],33.8%
same,Ratio IC50,NCI/ADR-RES [11],159.9
same,half-life,[12],2.38 h
same,Activity,KBv200 [13],Active
same,inhibition,KBv200 [1],Active
same,Tmax,[14],0.25 h
same,Ratio IC50,KBv200 [15],102.4
same,Ratio IC50,KBv200 [16],49.6
same,AUC,[17],1263 ng·h/mL
same,Vd,[18],1.53 L/kg
same,inhibition (INH),[19],Active
same,Activity,KBv200 [20],Active
same,Activity,KBv200 [21],inactive
same,inhibition,KBv200 [2],inactive
same,Activity,[22],6.6%
same,logD,[23],5
same,AUC(0-t) at 24 h,[24],1260 ng·h/mL
same,bioavailability,[25],0.09%
same,AUC(0-inf),[26],43.4 ng·h/mL
same,inhibition (INH),[27],Active
same,Cmax,[28],34.4 ng/mL
same,Activity,[29],Non-Toxic
same,Activity,[30],86.4%
same,Ratio IC50,KBv200 [3],124
same,Ratio IC50,NCI/ADR-RES [31],133.4
same,Activity,KBv200 [32],inactive
same,MRT inf,[33],0.75 h
same,AUC(0-t) at 24 h,[34],32.3 ng·h/mL
same,inhibition,KBv200 [4],Active
same,Activity,[35],Non-Toxic
same,inhibition at 10 µM,KBv200 [5],96.9%
same,inhibition,KBv200 [36],Active
same,Ratio IC50,KBv200 [37],12.1
same,half-life,[38],1.09 h
same,MRT inf,[39],3.11 h
same,Activity,NCI/ADR-RES [40],inactive
same,Activity,KBv200 [6],2.7%
same,Activity,[41],88.6%
same,Activity,KBv200 [42],Active
CC[C@H](C)[C@@H]1NC(=O)[C@H](C(C)C)NC(=O)CCCCCCCC(=O)N[C@@H]2CC[C@H](C2)OC1=O,Ratio IC50,KBv200 [3],1.4
same,inhibition at 10 µM,KBv200 [5],72.2%
same,Activity,KBv200 [6],20.5%
CC(C)[C@@H]1NC(=O)CCCCCCCC(=O)N[C@@H](Cc2ccccc2)COC(=O)[C@H](C(C)C)NC1=O,Ratio IC50,KBv200 [3],7.9
same,inhibition at 10 µM,KBv200 [5],91.1%
same,Activity,KBv200 [6],15.8%
CC[C@H](C)[C@@H]1NC(=O)[C@H](C(C)C)NC(=O)CCCCCCCC(=O)Nc2cccc(c2)COC1=O,Ratio IC50,KBv200 [3],26.8
same,inhibition at 10 µM,KBv200 [5],92.3%
same,Activity,KBv200 [6],31%
CC[C@H](C)[C@@H]1NC(=O)[C@H](C(C)C)NC(=O)CCCCCCCCC(=O)N[C@@H](Cc2ccccc2)COC1=O,Ratio IC50,KBv200 [3],22.2
same,inhibition at 10 µM,KBv200 [5],89.7%
same,Activity,KBv200 [6],8.6%
